For 15 compounds, IC50 results are on record in patent publication US12240862B2, “Inhibitors of peptidylarginine deiminases” (Gilead Sciences, Inc., priority 2020, dated 2025).

This assay has as its target T1, human PAD4 (Homo sapiens, UniProt Q9UM07).
T1 construct: human PAD4 (NM_012387), A2P663, was PCR amplified; His-SUMO (N, cleaved yes); made in house; host or cells: E. coli BL21(DE3)
Put plainly: In vitro PAD4 BAEE biochemical assay. To be noted: human PAD4, BAEE substrate; 5 nM PAD4, 2 mM calcium chloride, 3 mM BAEE; geometric mean of multiple experiments. The procedure: The PCR product was ligated into linearized pET-SUMO vector (Invitrogen, Carlsbad, CA), which is part of the Champion™ pET SUMO Protein Expression System. After sequence verification for the correct orientation, the pET-SUMO-hPAD4 expression plasmid was transformed into BL21(DE3) cells.
E. Coli BL21(DE3) cells were inoculated in LB medium with kanamycin at 37° C. until A600 nm reached about 0.5. Protein expression was induced by addition of 0.5 mM IPTG (final) and continued overnight at 16° C. at 220 rpm.
Cells were harvested by centrifugation at 5000 rpm for 10 minutes at 4° C. The pellet was resuspended in 300 ml lysis buffer (20 mM Tris-HCl, pH 8.0, 1 mM EDTA, 500 mM NaCl, 1 mM (tris(2-carboxyethyl)phosphine) (TCEP), 10% glycerol, and 1% Triton X100 and EDTA free protease inhibitor) and lysed by 3× passage through a microfluidizer (Microfluidics, Newton, MA) at 18,000 psi. The cell lysate was clarified by centrifugation at 30,000 rpm for 60 minutes at 4° C. […] Bound protein was eluted with a 0-100% linear gradient of 100 mL Ni-B buffer (Ni A buffer+0.5 M Imidazole).
The protein was then reloaded onto a Ni—HP column for a reverse purification step and recovered in flow through fraction. The protein with His-Sumo tag removed was then polished using a 16/60 Superdex-200 gel filtration column with gel filtration buffer (20 mM Tris pH 8.0, NaCl 400 mM and 1 mM TCEP). The fractions containing the protein were pulled and frozen at −80° C.
The enzymatic activity of human PAD4 was monitored in a biochemical assay in the presence or absence of compounds using the small peptidyl arginine mimic BAEE (Na-Benzoyl-L-arginine ethyl ester hydrochloride) as substrate. PAD4 activity led to deamination of BAEE and release of ammonia. Levels of ammonia were monitored by using an amine coupling reaction and were indicative of PAD4 enzymatic activity.
One hundred nanoliters of test compounds dissolved in DMSO at various concentrations were dispensed into a 384-well black OptiPlate using a Labcyte Echo instrument. Ten microliters of a solution of recombinant PAD4 and calcium chloride diluted in PAD4 assay buffer (50 mM MOPS [3-(N-morpholino) propanesulfonic acid], pH 7.6; 50 mM sodium chloride; 0.05% Tween-20; 2 mM dithiothreitol) was added to the compound-containing plate and was incubated for 30 minutes at 25° C. Ten microliters of a solution of BAEE (Sigma-Aldrich #B4500) diluted in PAD4 assay buffer was then added to start the reaction. Final concentrations were 5 nM PAD4, 2 mM calcium chloride, and 3 mM BAEE. The reaction mixture was incubated at 25° C. for 2 hours and was stopped with the addition of 10 microliters of a solution of 75 mM EDTA (Ethylenediaminetetraacetic acid) in PAD4 assay buffer. Thirty microliters of detection solution (5 mM o-phthalaldehyde, 50 mM MOPS [3-(N-morpholino) propanesulfonic acid], pH 7.6; 50 mM sodium chloride; 0.05% Tween-20; 5 mM dithiothreitol) was then added and the reaction was incubated for 1 hour at 25° C.

Each structure is given as a SMILES string. pIC50: −log10 of the molar value.

T1 sequence (Q9UM07 2-663): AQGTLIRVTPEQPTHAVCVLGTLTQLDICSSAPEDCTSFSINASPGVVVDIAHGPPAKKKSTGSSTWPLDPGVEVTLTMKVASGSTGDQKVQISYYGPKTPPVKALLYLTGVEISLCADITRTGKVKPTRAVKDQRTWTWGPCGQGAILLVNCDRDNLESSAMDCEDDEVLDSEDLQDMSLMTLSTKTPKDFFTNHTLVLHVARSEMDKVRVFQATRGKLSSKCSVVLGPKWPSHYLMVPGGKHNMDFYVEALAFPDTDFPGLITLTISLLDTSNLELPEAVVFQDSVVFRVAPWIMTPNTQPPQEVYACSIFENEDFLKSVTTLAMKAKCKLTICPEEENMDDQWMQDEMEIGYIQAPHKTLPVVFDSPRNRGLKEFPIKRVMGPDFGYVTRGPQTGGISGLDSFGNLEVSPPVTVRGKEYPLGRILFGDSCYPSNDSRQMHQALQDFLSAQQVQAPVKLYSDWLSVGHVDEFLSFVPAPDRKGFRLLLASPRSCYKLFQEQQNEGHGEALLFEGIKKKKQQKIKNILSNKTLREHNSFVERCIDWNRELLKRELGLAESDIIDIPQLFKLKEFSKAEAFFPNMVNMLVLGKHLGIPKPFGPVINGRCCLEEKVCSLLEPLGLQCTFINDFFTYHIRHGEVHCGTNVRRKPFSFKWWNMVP

Regarding `COc1cc(C(=O)N2[C@H]3CC[C@@H]2[C@@H]2NCCO[C@@H]2C3)cc2nc(-c3cc4ccc([C@@H](C)NC(=O)C56CC(F)(C5)C6)nc4n3CC3CC3)c(C)n12` [Example 13, ~{N}-[(1~{R})-1-[1-(cyclopropylmethyl)-2-[5-methoxy-3-methyl-7-[(1~{R},2~{S},7~{R}, 9~{S})-6-oxa-3,12-diazatricyclo [7.2.1.0^{2,7}]dodecane-12-carbonyl]imidazo[1,2-a]pyridin-2-yl]pyrrolo[2,3-b]pyridin-6-yl]ethyl]-3-fluorobicyclo[1.1.1] pentane-1-carboxamide], the pIC50 is 5.75.
Take `COc1cc(C(=O)N2[C@H]3CC[C@@H]2[C@H](N)C3)cc2nc(-c3cc4ccc([C@@H](C)NC(=O)c5ccccc5F)nc4n3CC3CC3)c(C)n12` [Example 15, ~{N}-[(1~{R})-1-[2-[7-[(1~{R}, 2~{R},4~{S})-2-amino-7-azabicyclo [2.2.1]heptane-7-carbonyl]-5-methoxy-3-methylimidazo [1,2-a]pyridin-2-yl]-1-(cyclopropylmethyl)pyrrolo[2,3-b]pyridin-6-yl]ethyl]-2-fluorobenzamide]: the pIC50 was 6.53.
`COc1cc(C(=O)N2[C@H]3CC[C@@H]2[C@H](N)C3)cc2nc(-c3cc4ccc([C@@H](C)NC(=O)c5c(F)cccc5F)nc4n3CC3CC3)c(C)n12` [Example 16, ~{N}-[(1~{R})-1-[2-[7-[(1~{R},2~{R},4~{S})-2-amino-7-azabicyclo [2.2.1]heptane-7-carbonyl]-5-methoxy-3-methylimidazo [1,2-a]pyridin-2-yl]-1-(cyclopropylmethyl)pyrrolo[2,3-b]pyridin-6-yl]ethyl]-2,6-difluorobenzamide]: the pIC50 is 6.94.
Take `COc1ccccc1C(=O)N[C@H](C)c1ccc2cc(-c3nc4cc(C(=O)N5[C@H]6CC[C@@H]5[C@H](N)C6)cc(OC)n4c3C)n(CC3CC3)c2n1` [Example 17]: the negative-log IC50 (pIC50) is 6.46.
Turning to `COc1cc(C(=O)N2[C@H]3CC[C@@H]2[C@H](N)[C@H](OCC(F)F)C3)cc2nc(-c3cc4ccc([C@@H](C)NC(=O)C56CC(F)(C5)C6)nc4n3CC3CC3)c(C)n12` [Example 18], the pIC50 is 6.24.
As for `COc1cc(C(=O)N2C[C@@H]3CCN[C@@H]3C2)cc2nc(-c3cc4ccc([C@@H](C)NC(=O)C56CC(F)(C5)C6)nc4n3CC3CC3)c(C)n12` [Example 20, ~{N}-[(1~{R})-1-[2-[7-[(3~{a}~{S}, 6~{a}~{S})-2,3,3~{a}, 4,6,6~{a}-hexahydro-1~{H}-pyrrolo[3,4-b]pyrrole-5-carbonyl]-5-methoxy-3-methylimidazo[1,2-a]pyridin-2-yl]-1-(cyclopropylmethyl)pyrrolo[2,3-b]pyridin-6-yl]ethyl]-3-fluorobicyclo[1.1.1] pentane-1-carboxamide], the figure is 5.41; as for `COc1cc(C(=O)N2C[C@H]3CCN[C@H]3C2)cc2nc(-c3cc4ccc([C@@H](C)NC(=O)C56CC(F)(C5)C6)nc4n3CC3CC3)c(C)n12` [Example 21], 5.69.
As for `COc1cc(C(=O)N2[C@H]3CC[C@@H]2[C@H](N)[C@H](OC)C3)cc2nc(-c3cc4ccc([C@@H](C)NC(=O)C56CC(F)(C5)C6)nc4n3CC3CC3)c(C)n12` [Example 22, ~{N}-[(1~{R})-1-[2-[7-[(1~{R},2~{S},3~{R}, 5~{S})-2-amino-3-methoxy-8-azabicyclo [3.2.1]octane-8-carbonyl]-5-methoxy-3-methylimidazo [1,2-a]pyridin-2-yl]-1-(cyclopropylmethyl)pyrrolo[2,3-b]pyridin-6-yl]ethyl]-3-fluorobicyclo[1.1.1] pentane-1-carboxamide], the figure is 6.32; as for `COCc1nn(C)cc1C(=O)N[C@H](C)c1ccc2cc(-c3nc4cc(C(=O)N5[C@H]6CC[C@@H]5[C@H](N)C6)cc(OC)n4c3C)n(CC3CC3)c2n1` [Example 23, ~{N}-[(1~{R})-1-[2-[7-[(1~{R},2~{R},4~{S})-2-amino-7-azabicyclo [2.2.1]heptane-7-carbonyl]-5-methoxy-3-methylimidazo [1,2-a]pyridin-2-yl]-1-(cyclopropylmethyl)pyrrolo[2,3-b]pyridin-6-yl]ethyl]-3-(methoxymethyl)-1-methylpyrazole-4-carboxamide], 7.21; as for `COc1cc(C(=O)N2C[C@H]3C[C@@]3(N)C2)cc2nc(-c3cc4ccc([C@@H](C)NC(=O)C56CC(F)(C5)C6)nc4n3CC3CC3)c(C)n12` [Example 24, ~{N}-[(1~{R})-1-[2-[7-[(1~{S},5~{R})-1-amino-3-azabicyclo [3.1.0]hexane-3-carbonyl]-5-methoxy-3-methylimidazo [1,2-a]pyridin-2-yl]-1-(cyclopropylmethyl)pyrrolo[2,3-b]pyridin-6-yl]ethyl]-3-fluorobicyclo[1.1.1] pentane-1-carboxamide], 5.05.
As to `COc1cc(C(=O)N2C[C@@H]3C[C@]3(N)C2)cc2nc(-c3cc4ccc([C@@H](C)NC(=O)C56CC(F)(C5)C6)nc4n3CC3CC3)c(C)n12` [Example 25, ~{N}-[(1~{R})-1-[2-[7-[(1~{R},5~{S})-1-amino-3-azabicyclo [3.1.0]hexane-3-carbonyl]-5-methoxy-3-methylimidazo [1,2-a]pyridin-2-yl]-1-(cyclopropylmethyl)pyrrolo[2,3-b]pyridin-6-yl]ethyl]-3-fluorobicyclo[1.1.1] pentane-1-carboxamide], the pIC50 was 5.35.
Consider `COc1nn(C)cc1C(=O)N[C@H](C)c1ccc2cc(-c3nc4cc(C(=O)N5[C@H]6CC[C@@H]5[C@H](N)C6)cc(OC)n4c3C)n(CC3CC3)c2n1` [Example 26, ~{N}-[(1~{R})-1-[2-[7-[(1~{R},2~{R},4~{S})-2-amino-7-azabicyclo [2.2.1]heptane-7-carbonyl]-5-methoxy-3-methylimidazo [1,2-a]pyridin-2-yl]-1-(cyclopropylmethyl)pyrrolo[2,3-b]pyridin-6-yl]ethyl]-3-methoxy-1-methylpyrazole-4-carboxamide], for which the pIC50 was 6.82.
Take `COCC1(C(=O)N[C@H](C)c2ccc3cc(-c4nc5cc(C(=O)N6[C@H]7CC[C@@H]6[C@H](N)C7)cc(OC)n5c4C)n(CC4CC4)c3n2)CCC1` [Example 29, ~{N}-[(1~{R})-1-[2-[7-[(1~{R},2~{R},4~{S})-2-amino-7-azabicyclo [2.2.1]heptane-7-carbonyl]-5-methoxy-3-methylimidazo[1,2-a]pyridin-2-yl]-1-(cyclopropylmethyl)pyrrolo[2,3-b]pyridin-6-yl]ethyl]-1-(methoxymethyl) cyclobutane-1-carboxamide]: the pIC50 was 6.97.
For `COc1cc(C(=O)N2[C@H]3CC[C@@H]2[C@H](N)C3)cc2nc(-c3cc4ccc([C@@H](C)NC(=O)c5cccn(C)c5=O)nc4n3CC3CC3)c(C)n12` [Example 30, ~{N}-[(1~{R})-1-[2-[7-[(1~{R}, 2~{R},4~{S})-2-amino-7-azabicyclo [2.2.1]heptane-7-carbonyl]-5-methoxy-3-methylimidazo [1,2-a]pyridin-2-yl]-1-(cyclopropylmethyl)pyrrolo[2,3-b]pyridin-6-yl]ethyl]-1-methyl-2-oxopyridine-3-carboxamide], the pIC50 is 7.08.
For the compound `COc1cc(C(=O)N2CC[C@H]3CCCN[C@H]3C2)cc2nc(-c3cc4ccc([C@@H](C)NC(=O)C56CC(F)(C5)C6)nc4n3CC3CC3)c(C)n12` [Example 31, ~{N}-[(1~{R})-1-[2-[7-[(4~{a}~{R}, 8~{a}~{R})-2,3,4,4~{a},5,6,8,8~{a}-octahydro-1~{H}-1,7-naphthyridine-7-carbonyl]-5-methoxy-3-methylimidazo [1,2-a]pyridin-2-yl]-1-(cyclopropylmethyl)pyrrolo[2,3-b]pyridin-6-yl]ethyl]-3-fluorobicyclo[1.1.1] pentane-1-carboxamide], the pIC50 is 6.31.
